Source: ChEMBL document CHEMBL3045369 (J Neurochem, 2000)
Activity calls are given as the source filed them. No cut-off for these calls is given here.

What was measured:
[1] = molecular target: T1, Nicotinic acetylcholine receptor alpha 5 subunit (Musca domestica, UniProt A9XFY4); assay: Displacement of [3H]IMI from nicotinic acetylcholine receptor in Musca domestica (house fly) head membrane after 90 min by filter binding assay
T1 sequence (A9XFY4 whole entry): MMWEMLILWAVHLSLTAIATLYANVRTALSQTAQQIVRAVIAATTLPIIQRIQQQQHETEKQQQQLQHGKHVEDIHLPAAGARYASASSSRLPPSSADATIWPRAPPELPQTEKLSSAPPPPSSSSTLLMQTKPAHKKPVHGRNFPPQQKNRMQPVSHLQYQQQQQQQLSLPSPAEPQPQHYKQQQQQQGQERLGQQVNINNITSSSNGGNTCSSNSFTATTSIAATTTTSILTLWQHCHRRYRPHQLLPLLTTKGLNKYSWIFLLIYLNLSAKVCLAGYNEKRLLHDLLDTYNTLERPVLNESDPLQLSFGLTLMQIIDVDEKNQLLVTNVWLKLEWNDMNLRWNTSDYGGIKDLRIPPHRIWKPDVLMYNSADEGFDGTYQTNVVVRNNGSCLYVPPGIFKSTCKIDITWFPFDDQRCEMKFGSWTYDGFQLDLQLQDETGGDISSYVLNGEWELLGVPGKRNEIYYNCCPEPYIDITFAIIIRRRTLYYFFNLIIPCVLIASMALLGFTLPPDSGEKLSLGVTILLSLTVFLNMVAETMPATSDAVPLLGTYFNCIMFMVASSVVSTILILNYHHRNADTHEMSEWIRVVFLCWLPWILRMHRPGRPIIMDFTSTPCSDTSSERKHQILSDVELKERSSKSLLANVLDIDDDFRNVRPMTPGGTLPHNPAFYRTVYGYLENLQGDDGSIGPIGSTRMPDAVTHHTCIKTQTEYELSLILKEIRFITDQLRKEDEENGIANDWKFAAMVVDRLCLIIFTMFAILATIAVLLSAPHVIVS

[2] = molecular target: T2, Acetylcholine receptor subunit beta-like 2 (Drosophila melanogaster, UniProt P25162); assay: Displacement of [3H]IMI from nicotinic acetylcholine receptor in Drosophila melanogaster head membrane after 90 min by filter binding assay
T2 sequence (P25162 whole entry): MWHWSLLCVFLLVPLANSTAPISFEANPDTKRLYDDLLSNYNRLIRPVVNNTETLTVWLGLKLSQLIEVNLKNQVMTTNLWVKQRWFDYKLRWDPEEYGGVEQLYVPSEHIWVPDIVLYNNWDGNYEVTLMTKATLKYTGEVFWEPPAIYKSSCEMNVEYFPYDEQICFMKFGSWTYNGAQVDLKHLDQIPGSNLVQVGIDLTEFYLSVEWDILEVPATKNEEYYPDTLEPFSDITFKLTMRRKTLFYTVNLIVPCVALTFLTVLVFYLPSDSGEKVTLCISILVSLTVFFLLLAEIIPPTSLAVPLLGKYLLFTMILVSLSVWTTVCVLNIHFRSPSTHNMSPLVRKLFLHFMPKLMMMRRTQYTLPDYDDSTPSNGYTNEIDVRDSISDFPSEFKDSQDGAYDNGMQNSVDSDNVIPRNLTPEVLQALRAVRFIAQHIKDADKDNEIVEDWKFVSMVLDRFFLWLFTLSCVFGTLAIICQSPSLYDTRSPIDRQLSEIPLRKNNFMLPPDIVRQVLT

[3] = Displacement of [3H]IMI from nicotinic acetylcholine receptor in Myzus persicae (green peach aphid) whole body membrane after 90 min by filter binding assay
[4] = molecular target: T3, Acetylcholine receptor subunit beta-like 2 (Drosophila melanogaster) (UniProt P25162); assay: Competitive inhibition of nicotinic acetylcholine receptor in Drosophila melanogaster head membrane using [3H]IMI as substrate incubated for 5 min prior to substrate addition measured after 90 min by Sctachard plot analysis
T3 sequence (whole entry): T2 sequence (P25162 whole entry)

Myzus persicae = assay: Competitive inhibition of nicotinic acetylcholine receptor in Myzus persicae (green peach aphid) whole body membrane using [3H]IMI as substrate incubated for 5 min prior to substrate addition measured after 90 min by Sctachard plot analysis

C/N=C(\NCc1ccc(Cl)nc1)N[N+](=O)[O-]
IC50 [1]: 7.1 nM
IC50 [2]: 7.4 nM
IC50 [3]: 15 nM

CN1CN(C)/C(=N\[N+](=O)[O-])N(Cc2cnc(Cl)s2)C1
IC50 [2]: > 1000 nM
IC50 [3]: > 1000 nM

CCN(Cc1cnc(Cl)s1)/C(=C/[N+](=O)[O-])NC
IC50 [2]: 160 nM
IC50 [3]: 150 nM

CN1CN(C)/C(=N\[N+](=O)[O-])N(Cc2ccc(Cl)nc2)C1
IC50 [2]: > 1000 nM
IC50 [3]: > 1000 nM

C/C(=N\C#N)N(C)Cc1cnc(Cl)s1
IC50 [2]: 154 nM
IC50 [3]: 65 nM

N#C/N=C1\SCCN1Cc1cnc(Cl)s1
IC50 [2]: 94 nM
IC50 [3]: 56 nM

O=[N+]([O-])/N=C1\NCOCN1Cc1ccc(Cl)nc1
IC50 [1]: 14 nM
IC50 [2]: 22 nM
IC50 [3]: 13 nM

O=[N+]([O-])C=C1NCCCS1
IC50 [2]: 4700 nM
IC50 [3]: 3500 nM

C/C(=N\C#N)N(C)Cc1ccc(Cl)nc1 [ACETAMIPRID]
IC50 [2]: 8.3 nM
IC50 [3]: 10 nM

CN/C(=N\[N+](=O)[O-])NCc1cnc(Cl)s1 [CLOTHIANIDINE]
IC50 [1]: 1.8 nM
IC50 [2]: 2.2 nM
inhibition [4]: Active
inhibition (Myzus persicae): Active
IC50 [3]: 9.2 nM

O=[N+]([O-])/N=C1\NCOCN1Cc1cnc(Cl)s1 [DESMETHYLTHIAMETHOXAM]
IC50 [1]: 16 nM
IC50 [2]: 20 nM
inhibition [4]: Active
inhibition (Myzus persicae): Active
IC50 [3]: 10 nM

CN/C(=N/CC1CCOC1)N[N+](=O)[O-] (stereo unspecified) [DINOTEFURAN]
IC50 [2]: 5000 nM

O=[N+]([O-])/N=C1\NCCN1Cc1ccc(Cl)nc1 [IMIDACLOPRID]
IC50 [1]: 2.6 nM
IC50 [2]: 2.3 nM
IC50 [3]: 3.1 nM

O=[N+]([O-])/N=C1\NCCN1Cc1cnc(Cl)s1 [IMIDACLOTHIZ]
IC50 [1]: 12 nM
IC50 [2]: 17 nM
IC50 [3]: 21 nM

CCN(Cc1ccc(Cl)nc1)/C(=C/[N+](=O)[O-])NC [NITENPYRAM]
IC50 [2]: 11 nM
IC50 [3]: 21 nM

N#C/N=C1\SCCN1Cc1ccc(Cl)nc1 [THIACLOPRID]
IC50 [2]: 7.5 nM
IC50 [3]: 3.4 nM
